What follows are molecules tested against human α7 nAchR (Homo sapiens (Human), UniProt P36544) (assay: Human α7 nicotinic acetylcholine receptor [Ca2+]i assay (PAM, Ca2+ fluorometry)). Conditions: Flp-In 293 cells expressing human α7 nAchR and human RIC-3; in presence of saturating agonist (mostly PNU-282987, 1 μM).
Format: cell-based
Method: Biological Activity Human α7 Nicotinic Acetylcholine Receptor [Ca^2+]i Assay
Cells: Flp-In 293 cells stably expressing human α7 nAchR and human RIC-3 (α7 cells, generated in house.)
Materials: 96-well plates coated with PDL (Falcon), culture medium, assay buffer, DMSO, FLIPR Calcium 5 kit (Molecular Devices), probenecid, agonist and PAM test compounds.
Brief Description of the Method (Ca^2+ Fluorometry)
α7 cells stably expressing human α7 nAchR were cultured in the medium detailed above, and were split twice a week. For the fluorometric measurements of cytosolic Ca^2+ ion concentration ([Ca^2+]i) cells were seeded in 96-well microplates at a density of 60000 cells/well and maintained overnight in a tissue culture incubator at 37° C. under an atmosphere of 95% air/5% CO2. The plating medium was identical with the culture medium. 50 μl of the growth medium was aspirated with a cell washer (BioTek Elx405UCVWS). Then 50 μl/well Calcium 5 kit diluted 2-fold in assay buffer was added manually using an 8-channel pipette. After an incubation period (20 minutes, 37° C.) 50 μl/well assay buffer containing vehicle (DMSO, 4% added) or reference α7 PAMs (4×of the final concentration) were added manually and the cells were incubated for an additional 10 minutes at 37° C. Baseline and agonist-evoked [Ca2+]i-changes were monitored with FlexStation II (Molecular Devices, Sunnyvale, Calif.), a plate reader fluorometer with integrated 8-channel fluid addition capability. Fluorescence measurements were carried out at 37° C. The dye was excited at 485 nm, emission was sampled at 525 nm at 1.4-s intervals. Baseline was recorded for 20 seconds followed by agonist stimulation. 50 μl 4× concentrated agonist solution was added to the cells using the pipettor of FlexStation II and fluorescence was monitored for an additional 40 seconds. Final DMSO concentration was 1% for all treatments. To achieve this, a series of DMSO stock solutions were prepared from all test compounds. These stocks were stored under 0° C. and were further diluted in assay buffer to obtain the desired final concentration immediately before the measurement. Agonist and PAM concentration-response studies were conducted in the presence of saturating concentrations of PAMs (mostly PNU-120596, 5 μM) and agonists (mostly PNU-282987, 1 μM), respectively. Results were expressed as ΔF/F values using SoftMax Pro software (Molecular Devices), where F was the resting fluorescence preceding agonist application and ΔF was the increase in fluorescence at a given time (ΔF=maximum fluorescence intensity values after stimulation minus average fluorescence intensity values before stimulation). In all experiments, all treatments were measured in multiple wells in parallel, and the mean ΔF/F values were used for analysis.

Chain of human α7 nAchR (P36544 23-502): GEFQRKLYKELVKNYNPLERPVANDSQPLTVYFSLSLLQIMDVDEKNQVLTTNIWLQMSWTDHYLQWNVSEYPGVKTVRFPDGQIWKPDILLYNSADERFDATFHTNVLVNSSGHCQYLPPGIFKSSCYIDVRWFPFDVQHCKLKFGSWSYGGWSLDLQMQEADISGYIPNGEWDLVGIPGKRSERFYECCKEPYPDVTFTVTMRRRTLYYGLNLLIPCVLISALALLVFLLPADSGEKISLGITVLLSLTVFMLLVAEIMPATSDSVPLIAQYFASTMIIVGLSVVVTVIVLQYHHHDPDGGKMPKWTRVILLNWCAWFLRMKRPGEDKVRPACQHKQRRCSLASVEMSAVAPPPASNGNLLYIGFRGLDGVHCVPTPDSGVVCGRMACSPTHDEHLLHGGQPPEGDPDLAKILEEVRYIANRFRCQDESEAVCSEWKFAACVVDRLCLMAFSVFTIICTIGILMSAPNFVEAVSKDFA

SMILES | EC50
CCc1cccc(NC(=O)C2=CC(c3ccc(OC)c(OC)c3)=NS(=O)(=O)N2C)c1 [Example 5] | 210 nM
CCN1C(C(=O)Nc2ccc(OC)c(Cl)c2)=CC(c2ccc(OC)c(OC)c2)=NS1(=O)=O [Example 36] | 310 nM
COc1ccc(C2=NS(=O)(=O)N(C)C(C(=O)Nc3cccc(C)c3)=C2)cc1C [Example 24] | 210 nM
CCN1C(C(=O)Nc2cncc(C(F)(F)F)n2)=CC([C@H]2CC[C@H](C(F)(F)F)CC2)=NS1(=O)=O [Example 60] | 300 nM
COc1ccc(C2=NS(=O)(=O)N(C)C(C(=O)Nc3cc(C)ccn3)=C2)cc1OC [Example 18] | 2900 nM
CCN1C(C(=O)Nc2cccc(C(F)(F)F)c2)=CC(c2ccc(OC)c(C(F)(F)F)c2)=NS1(=O)=O [Example 39] | 150 nM
CCN1C(C(=O)Nc2cncc(C(F)(F)F)c2)=CC([C@H]2CC[C@H](C(F)(F)F)CC2)=NS1(=O)=O [Example 58] | 1200 nM
COc1ccc(C2=NS(=O)(=O)N(C)C(C(=O)Nc3cccc(C(F)(F)F)c3)=C2)cc1OC [Example 12] | 230 nM
CCN1C(C(=O)Nc2ccc(C)cc2)=CC(c2ccc(OC)c(C)c2)=NS1(=O)=O [Example 46] | 170 nM
CN1C(C(=O)Nc2cccc(F)n2)=CC(C2CCC(F)(F)CC2)=NS1(=O)=O [Example 56] | 2500 nM
CCN1C(C(=O)Nc2cccc(C)c2)=CC(c2ccc(OC)c(C)c2)=NS1(=O)=O [Example 45] | 210 nM
COc1ccc(C2=NS(=O)(=O)N(C)C(C(=O)Nc3ccc(C)cc3)=C2)cc1OC [Example 14] | 1400 nM
CCN1C(C(=O)Nc2cccc(C(F)(F)F)n2)=CC([C@H]2CC[C@H](OC)CC2)=NS1(=O)=O [Example 65] | 1100 nM
CCN1C(C(=O)Nc2cccc(F)n2)=CC([C@H]2CC[C@H](C(F)(F)F)CC2)=NS1(=O)=O [Example 61] | 100 nM
CCc1ccc(NC(=O)C2=CC(c3ccc(OC)c(OC)c3)=NS(=O)(=O)N2C)cc1 [Example 6] | 1300 nM
CCN1C(C(=O)Nc2cccc(C(F)(F)F)c2)=CC(c2ccc(C(F)(F)F)c(OC)c2)=NS1(=O)=O [Example 48] | 330 nM
CCN1C(C(=O)Nc2ccc(C(F)(F)F)cn2)=CC([C@H]2CC[C@H](C(F)(F)F)CC2)=NS1(=O)=O [Example 59] | 1300 nM
CCN1C(C(=O)Nc2cccc(C(F)(F)F)c2)=CC([C@H]2CC3C[C@@H]3C2)=NS1(=O)=O (stereo partly drawn) [Example 52] | 1600 nM

SMILES | EC50
COc1ccc(NC(=O)C2=CC(c3ccc(OC)c(OC)c3)=NS(=O)(=O)N2C)cc1 [Example 11] | 440 nM
COc1ccc(C2=NS(=O)(=O)N(C)C(C(=O)Nc3ccc4c(c3)OCO4)=C2)cc1OC [Example 9] | 1600 nM
CCN1C(C(=O)Nc2cccc(C(F)(F)F)c2)=CC(c2ccc(OC)c(OC)c2)=NS1(=O)=O [Example 31] | 440 nM
CCN1C(C(=O)Nc2cccc(C(F)(F)F)n2)=CC(C2CCC(F)(F)CC2)=NS1(=O)=O [Example 68] | 140 nM
CCN1C(C(=O)Nc2cccc(F)n2)=CC([C@H]2CC3C[C@@H]3C2)=NS1(=O)=O (stereo partly drawn) [Example 72] | 430 nM
CCN1C(C(=O)Nc2ccc(F)c(C)n2)=CC([C@H]2CC[C@H](C(F)(F)F)CC2)=NS1(=O)=O [Example 77] | 1500 nM
CCN1C(C(=O)Nc2cccc(C(F)(F)F)c2F)=CC([C@H]2CC[C@H](C(F)(F)F)CC2)=NS1(=O)=O [Example 57] | 2000 nM
CCN1C(C(=O)Nc2cccc(C(F)(F)F)n2)=CC(C2CCCCC2)=NS1(=O)=O [Example 73] | 390 nM
CCN1C(C(=O)Nc2cccc(C#N)n2)=CC([C@H]2CC[C@H](C(F)(F)F)CC2)=NS1(=O)=O [Example 76] | 85 nM
CCN1C(C(=O)Nc2cccc(C(F)(F)F)c2)=CC(C2CCC(F)(F)CC2)=NS1(=O)=O [Example 51] | 810 nM
CCN1C(C(=O)Nc2cncc(F)n2)=CC([C@H]2CC[C@H](C(F)(F)F)CC2)=NS1(=O)=O [Example 63] | 190 nM
CCN1C(C(=O)Nc2cncc(C(F)(F)F)n2)=CC(C2CCC(F)(F)CC2)=NS1(=O)=O [Example 69] | 1100 nM
CCN1C(C(=O)Nc2cccc(OC)c2)=CC(c2ccc(OC)c(C)c2)=NS1(=O)=O [Example 42] | 120 nM
COc1ccc(C2=NS(=O)(=O)N(C)C(C(=O)Nc3ccn4nccc4c3)=C2)cc1OC [Example 7] | 2000 nM
CCN1C(C(=O)Nc2cccc(F)n2)=CC(C2CCCCC2)=NS1(=O)=O [Example 74] | 1100 nM
COc1ccc(C2=NS(=O)(=O)N(C)C(C(=O)Nc3cccc(C(F)(F)F)c3)=C2)cc1Cl [Example 26] | 360 nM
CCN1C(C(=O)Nc2cccc(C)c2)=CC(c2ccc(OC)c(C(F)(F)F)c2)=NS1(=O)=O [Example 40] | 60 nM
CCN1C(C(=O)Nc2ccc(OC(F)(F)F)cc2)=CC(c2ccc(OC)c(OC)c2)=NS1(=O)=O [Example 32] | 720 nM

Results, then the molecule that gave them:

EC50 | SMILES
55 nM | COc1ccc(C2=NS(=O)(=O)N(C(C)C)C(C(=O)Nc3cccc(F)n3)=C2)cc1OC [Example 123]
230 nM | O=C(Nc1ccc(F)cn1)C1=CC([C@H]2CC[C@H](C(F)(F)F)CC2)=NS(=O)(=O)N1CC1CC1 [Example 133]
45 nM | CCCN1C(C(=O)Nc2cccc(C(F)(F)F)n2)=CC(c2ccc(OC)c(OC)c2)=NS1(=O)=O [Example 95]
310 nM | COCCN1C(C(=O)Nc2cccc(C(F)(F)F)n2)=CC([C@H]2CC[C@H](C(F)(F)F)CC2)=NS1(=O)=O [Example 128]
2900 nM | CCCCn1cc(NC(=O)C2=CC(c3ccc(OC)c(OC)c3)=NS(=O)(=O)N2C)cn1 [Example 86, N-(1-butyl-1H-pyrazol-4-yl)-5-(3,4-dimethoxyphenyl)-2-methyl-1,1-dioxo-2H-1λ^6,2,6-thiadiazine-3-carboxamide]
110 nM | COc1ccc(C2=NS(=O)(=O)N(CC3CC3)C(C(=O)Nc3cccc(C)c3)=C2)cc1OC [Example 117]
110 nM | CC(C)N1C(C(=O)Nc2cncc(C(F)(F)F)n2)=CC([C@H]2CC[C@H](C(F)(F)F)CC2)=NS1(=O)=O [Example 124]
790 nM | CCN1C(C(=O)Nc2cccc(C(C)(F)F)n2)=CC([C@H]2CC[C@H](C(F)(F)F)CC2)=NS1(=O)=O [Example 78]
330 nM | CCCN1C(C(=O)Nc2cccc(C(F)(F)F)c2)=CC(c2cc(OC)c(OC)cc2F)=NS1(=O)=O [Example 96]
40 nM | CCCN1C(C(=O)Nc2cccc(C(F)(F)F)n2)=CC(c2ccc(OC)c(C)c2)=NS1(=O)=O [Example 99]
120 nM | CC[C@@H](C)N1C(C(=O)Nc2cccc(C(F)(F)F)n2)=CC(c2ccc(OC)c(OC)c2)=NS1(=O)=O [Example 81]
960 nM | COCCN1C(C(=O)Nc2cccc(C(F)(F)F)n2)=CC(C2CCC(F)(F)CC2)=NS1(=O)=O [Example 130]
75 nM | CCCN1C(C(=O)Nc2ccc(OC)cc2)=CC(c2ccc(OC)c(OC)c2)=NS1(=O)=O [Example 112]
640 nM | COc1ccc(C2=NS(=O)(=O)N(C(C)C)C(C(=O)Nc3cc(Cl)ccn3)=C2)cc1OC [Example 110]
70 nM | O=C(Nc1cccc(C(F)(F)F)n1)C1=CC([C@H]2CC[C@H](C(F)(F)F)CC2)=NS(=O)(=O)N1CC1CC1 [Example 106]
110 nM | COc1ccc(C2=NS(=O)(=O)N(CC3CC3)C(C(=O)Nc3cccc(C(F)(F)F)n3)=C2)cc1OC [Example 103]
130 nM | COc1ccc(C2=NS(=O)(=O)N([C@@H]3CCOC3)C(C(=O)Nc3cccc(C(F)(F)F)n3)=C2)cc1OC [Example 84]
1800 nM | COCCN1C(C(=O)Nc2cccc(F)n2)=CC(C2CCC(F)(F)CC2)=NS1(=O)=O [Example 131]
120 nM | COc1ccc(C2=NS(=O)(=O)N(CC3CC3)C(C(=O)Nc3cccc(C(F)(F)F)c3)=C2)cc1C [Example 105]
80 nM | CCCN1C(C(=O)Nc2cccc(C)c2)=CC(c2ccc(OC)c(OC)c2)=NS1(=O)=O [Example 113]
310 nM | COc1ccc(C2=NS(=O)(=O)N([C@H]3CCOC3)C(C(=O)Nc3cccc(C(F)(F)F)n3)=C2)cc1OC [Example 83]
290 nM | COc1ccc(C2=NS(=O)(=O)N(C(C)C)C(C(=O)Nc3cccc(C(F)(F)F)c3)=C2)cc1OC [Example 89]
220 nM | CC(C)N1C(C(=O)Nc2cccc(C(F)(F)F)n2)=CC(C2CCC(F)(F)CC2)=NS1(=O)=O [Example 126]
35 nM | O=C(Nc1cccc(F)n1)C1=CC([C@H]2CC[C@H](C(F)(F)F)CC2)=NS(=O)(=O)N1CC1CC1 [Example 132]
